In patent publication EP3390415B1, “(R)- AND (S)-1-(3-(3-N,N-DIMETHYLAMINOCARBONYL)PHENOXYL-4-NITROPHENYL)-1-ETHYL-N,N'-BIS (ETHYLENE)PHOSPHORAMIDATE, COMPOSITIONS AND METHODS FOR THEIR USE AND PREPARATION” (OBI PHARMA, INC., priority 2015, dated 2017):

Tests used:
[1] = tested on: A375 melanoma human tumor xenograft; assay: In vivo human tumor xenograft model, antitumor activity; set-up: species or system nude mice; conditions: 2.5mpk,qdx5x2,ip
Source text: Specific pathogen-free homozygous female nude mice (nu/nu, Charles River Laboratories) were used. Mice were given food and water ad libitum and housed in microisolator cages. Four to six week old animals were identified by microchips (Locus Technology, Manchester, MD, USA) at the time of the experiments. All animal studies were approved by the Institutional Animal Care and Use Committee at Threshold Pharmaceuticals, Inc.
All cell lines were from the American Type Culture Collection (ATCC, Rockville, MD, USA).
Cells were mixed with Matrigel (30% in H460) and 0.2 ml per mouse were subcutaneously implanted to the flank area of the animals. When tumor size reached 100-150 mm^3, mice were randomized into experimental or vehicle groups with 10 mice/group and treatment was started (Day 1). The tested compounds were formulated in 5% DMSO in D5W. All compounds were given by IP, QDx5/wk (5 days on, 2 days off) as one cycle, for a total of 2 cycles. Tumor growth and body weight were measured twice a week. Tumor volume was calculated as (length x width^2)/2. Drug efficacy was assessed as Tumor Growth Inhibition (TGI) and Tumor Growth Delay (TGD). TGI was defined as (1-ΔT/ΔC) x 100, where ΔT/ΔC presented the ratio of the change in mean (or median, if variation within the group was relatively large) tumor volume of the treated group and of the control group. TGD was calculated as the extra days for the treated tumor to reach 500mm^3 as compared to the control group. Animals were culled when individual tumor size reached over 2000mm^3 or mean tumor volume exceeded 1000mm^3 in the group. Data are expressed as the mean ± SEM. One-way analysis of variance with Dunnett post comparison test (GraphPad Prism 4) or two-tailed student's t-test were used for analysis. A P level < 0.05 was considered statistically significant.
This study employed an A375 melanoma human tumor xenograft model and the compounds provided herein were compared to thiotepa and the approved anti melanoma drug, Abraxane. […] Mpk refers to mg/kg.

[2] = tested on: HepG2-GFP human hepatocellular carcinoma; assay: Orthotopic mouse model of human liver cancer, tumor burden; format: in vivo, athymic nude mice; conditions: 30mg/kg, Qdx35, Gavages
Experimental: Female athymic nude mice (6 weeks of age) were used in this study. The animals were purchased from Beijing HFK Bioscience, Co., Ltd and maintained in a High Efficiency Particulate Air Filter (HEPA) filtered environment with cages, food, and bedding sterilized by irradiation or autoclaving. A total of 32 nude mice were used for the study. HepG2-GFP human hepatocellular carcinoma cells (AntiCancer, Inc., San Diego, CA) were incubated with RPMI-1640 (Gibco-BRL, Life Technologies, Inc.), which contained 10% FBS. Cells were grown in a CO2 Water Jacketed Incubator (Forma Scientific) maintaining 37°C and a 5% CO2/95% air atmosphere. Cell viability was determined by trypan blue exclusion analysis. Five female athymic nude mice were injected subcutaneously with a single dose of 5 x 10^6 HepG2-GFP cells. Tumors were harvested when their size reached 1cm^3 and the tumor tissues were then cut into small fragments of 1mm^3. Forty female nude mice were implanted orthotopically with a single piece of tumor fragment, which was derived from a subcutaneous tumor model of HepG2-GFP human hepatocellular carcinoma. The tumor tissue was orthotopically implanted in the right lobe of the liver in each mouse by SOI (Surgical Orthotopic Implantation). Briefly, an upper abdominal incision of 1cm was made under anesthesia. Right lobe of the liver was exposed and a part of the liver surface was injured mechanically by scissors. Then a piece of tumor fragment was fixed within the liver tissue, the liver was returned to the peritoneal cavity and the abdominal wall finally closed. Mice were kept in laminar-flow cabinets under specific pathogen-free-conditions.
Treatment was started three days after tumor implantation when the implanted tumors reached an average size of around 1 mm^2. The 32 tumor-bearing mice were randomly divided into four experimental groups of 8 mice each. Each cage was clearly marked for its group with four mice per cage. […] Table. Groups and treatment protocol
During the period of the study, all of the experimental mice were checked daily for mortality or signs of morbidity. […] The body weights of the mice were measured twice weekly during the study period. Images of tumor growth and progression were acquired twice a week during the period of the study with the FluorVivo imaging system, Model 300/Mag (INDEC, CA, USA). […] Livers were exposed for imaging, after which the tumors were removed and weighted with an electronic balance (Sartorius BS 124 S, Germany). Tumor tissues were kept in formalin for further analysis. Comparisons of body weights and tumor burdens in different groups were analyzed using the Student's t-test with an α = 0.05 (two-sided). After intravenously injection of the test agents, the mice had no lying, no autonomous activity reduction. The experimental animals were generally in good condition. Table. Comparison of mean mice body weight at the end of the study
The progressions of orthotopic HepG2-GFP hepatocellular carcinoma in different groups were monitored by real time imaging. Images were acquired twice a week. Typical tumor images at the end of the study in each group and tumor growth curves derived from the signals of tumor fluorescence, which were analyzed using the Power Station software (INDEC Biosystems, CA, USA), are shown in figure 6 and figure 7, respectively Table. Average tumor size in each group (mm2)

[3] = Body weight and toxicity in the orthotopic liver cancer mouse model; format: in vivo, athymic nude mice; conditions: mouse, in vivo

S=P(N1CC1)(N1CC1)N1CC1 [Thio-TEPA, thiotepa]
Days to 500 mm^3 [1]: 18 days | Days to 1000 mm^3 [1]: 27 days | TGD500, Days (vs. vehicle) [1]: 3 days | TGD1000, Days (vs. vehicle) [1]: 2 days | TGI [1]: 16.6%

CNC(=O)c1cc(Oc2ccc(NC(=O)Nc3ccc(Cl)c(C(F)(F)F)c3)cc2)ccn1 [Sorafenib, reference compound]
Tumor weight (g) (mean ± sd) [2]: 0.0637 ± 0.0389 g | Tumor area (mm^2) (mean ± sd) ([2]; fluorescence imaging): 8.2 ± 5.3 mm^2 | tumor inhibition rate IR(%) ([2]; from final average tumor weights): 58.7% | toxicity to the experimental mice [3]: a certain degree of toxicity
